Earlier results, collected in PMC5861163 (European Journal of Nutrition, 2017).

System: human faecal microbiota
Design: method as in PMID 26471074
Conditions: after 24 h of fermentation in vitro

## O=C(/C=C/c1ccc(O)cc1)CC(=O)/C=C/c1ccc(O)cc1 [bisdemethoxycurcumin]
  degraded by the human faecal microbiota: ≤ 87%

## demethoxycurcumin
  degraded by the human faecal microbiota: ≤ 61%
